Experimental data: PubChem BioAssay AID330 (DTP/NCI, 2004)
Where “and” joins values, the source holds several entries; their conditions need not be identical. Equal entries are not always repeated. Inconclusive results and toxic doses are left out.

Test system: P388 leukemia ip, CD2F1 mice, survival T/C
Test: NCI In Vivo Anticancer Drug Screen. Data for tumor model P388 Leukemia (intraperitoneal) in CD2F1 (CDF1) mice
Conditions: endpoint: median survival time, higher = longer survival
In short: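 Mice carrying the transplanted tumor received test compound or vehicle. Survival was recorded in each group, and the value is the treated-group measurement divided by that of the vehicle-treated control group.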

[1] = dose: 12.5 mg/kg/injection, schedule: Q01DX009 (ip), vehicle: saline with Tween-80
[2] = dose: 25.0 mg/kg/injection, schedule: Q01DX009 (ip), vehicle: saline with Tween-80
[3] = dose: 50.0 mg/kg/injection, schedule: Q01DX009 (ip), vehicle: saline with Tween-80
[4] = dose: 50.0 mg/kg/injection, schedule: Q01DX009 (ip), vehicle: Klucel (hydroxypropylcellulose) (HPC)
[5] = dose: 100.0 mg/kg/injection, schedule: Q01DX009 (ip), vehicle: Klucel (hydroxypropylcellulose) (HPC)
[6] = dose: 50.0 mg/kg/injection, schedule: Q01DX005 (ip), vehicle: saline with Tween-80
[7] = dose: 100.0 mg/kg/injection, schedule: Q01DX005 (ip), vehicle: saline with Tween-80
[8] = dose: 200.0 mg/kg/injection, schedule: Q01DX005 (ip), vehicle: saline with Tween-80
[9] = dose: 100.0 mg/kg/injection, schedule: Q04DX002 (ip), vehicle: saline with Tween-80
[10] = dose: 200.0 mg/kg/injection, schedule: Q04DX002 (ip), vehicle: saline with Tween-80
[11] = dose: 100.0 mg/kg/injection, schedule: Q04DX003 (ip), vehicle: saline
[12] = dose: 200.0 mg/kg/injection, schedule: Q04DX003 (ip), vehicle: saline
[13] = dose: 400.0 mg/kg/injection, schedule: Q04DX003 (ip), vehicle: saline
[14] = dose: 60.0 mg/kg/injection, schedule: Q01DX005 (ip), vehicle: saline with Tween-80
[15] = dose: 120.0 mg/kg/injection, schedule: Q01DX005 (ip), vehicle: saline with Tween-80
[16] = dose: 240.0 mg/kg/injection, schedule: Q01DX005 (ip), vehicle: saline with Tween-80
[17] = dose: 100.0 mg/kg/injection, schedule: Q01DX009 (ip), vehicle: saline with Tween-80
[18] = dose: 200.0 mg/kg/injection, schedule: Q01DX009 (ip), vehicle: saline with Tween-80
[19] = dose: 400.0 mg/kg/injection, schedule: Q01DX009 (ip), vehicle: saline with Tween-80

In the case of `CC(C)(C)NSc1nc2ccccc2s1`, the T/C [1] is reported as 109 % of control, the T/C (dose: 12.5 mg/kg/injection, schedule: Q04DX003 (ip), vehicle: saline with Tween-80) is reported as 100 % of control and the T/C [2] is reported as 100 % of control. For the same compound, the T/C (dose: 25.0 mg/kg/injection, schedule: Q04DX003 (ip), vehicle: saline with Tween-80) was 95 % of control, the T/C [3] was 100 % of control and the T/C (dose: 50.0 mg/kg/injection, schedule: Q04DX003 (ip), vehicle: saline with Tween-80) was 100 % of control and 87 % of control.

`COc1cc(/C=C\C(=O)c2cccc(O)c(=O)c2)cc(OC)c1OC` was tested, and the T/C [4] was 112 % of control and the T/C [5] was 87 % of control.

`FC(F)(F)COP(OCC(F)(F)F)c1ccccc1` was tested, and the T/C [6] was 106 % of control, the T/C [7] was 111 % of control and the T/C [8] was 111 % of control.

With `Nc1ncnc2cc3cn[nH]c3cc12` the T/C (dose: 12.5 mg/kg/injection, schedule: Q01DX005 (ip), vehicle: saline with Tween-80) was 96 % of control, the T/C (dose: 25.0 mg/kg/injection, schedule: Q01DX005 (ip), vehicle: saline with Tween-80) was 95 % of control and the T/C [6] was 94 % of control and 97 % of control. For the same compound, the T/C [7] was 91 % of control and the T/C [8] was 100 % of control.

With `c1ccc2nc(-c3cnc4ccccc4n3)cnc2c1` the T/C [9] was 95 % of control and the T/C [10] was 90 % of control.

`ON=C1CCC(=NO)CC1` was tested, and the T/C (dose: 25.0 mg/kg/injection, schedule: Q04DX003 (ip), vehicle: saline) was 101 % of control, the T/C (dose: 50.0 mg/kg/injection, schedule: Q04DX003 (ip), vehicle: saline) was 100 % of control and the T/C [11] was 95 % of control. The T/C [12] was 107 % of control and the T/C [13] was 101 % of control.

`CC(=O)[C-](Cl)C(C)=O.CC(=O)[C-](Cl)C(C)=O.CC(=O)[C-](Cl)C(C)=O.[Ru+3]` was tested, and the T/C [14] was 111 % of control, the T/C [15] was 109 % of control and the T/C [16] was 98 % of control.

`COC(=O)CCCC1=NCCS1` was tested, and the T/C [6] was 103 % of control, the T/C [7] was 103 % of control and the T/C [8] was 112 % of control.

For `COC1=NCc2ccccc2C2(OC)C(C)(C)C12C#N` (configuration not stated), the T/C [6] was 96 % of control, the T/C [7] was 99 % of control and the T/C [8] was 101 % of control.

For `CCN1C(=O)/C(=C/C=C/N(C)c2ccccc2)SC1=S`, the T/C (dose: 50.0 mg/kg/injection, schedule: Q01DX009 (ip), vehicle: saline) was 112 % of control and the T/C (dose: 100.0 mg/kg/injection, schedule: Q01DX009 (ip), vehicle: saline) was 103 % of control.

For `CN1C(c2ccccc2)=C(C#N)C(=O)CC(c2ccco2)N1C` (configuration not stated), the T/C [14] was 98 % of control, the T/C [15] was 92 % of control and the T/C [16] was 89 % of control.

In the case of `NC(CCCNc1ccc(O)cc1)C(=O)O` (configuration not stated), the T/C (dose: 50.0 mg/kg/injection, schedule: Q01DX005 (ip), vehicle: saline) is reported as 100 % of control, the T/C (dose: 100.0 mg/kg/injection, schedule: Q01DX005 (ip), vehicle: saline) is reported as 99 % of control and 104 % of control and the T/C (dose: 200.0 mg/kg/injection, schedule: Q01DX005 (ip), vehicle: saline) is reported as 98 % of control.

`COc1ccc(-n2c(C)nc3ccccc3c2=O)cc1CN(CCCl)CCCl` was tested, and the T/C (dose: 25.0 mg/kg/injection, schedule: Q04DX002 (ip), vehicle: saline with Tween-80) was 97 % of control, the T/C (dose: 50.0 mg/kg/injection, schedule: Q04DX002 (ip), vehicle: saline with Tween-80) was 109 % of control and the T/C [9] was 100 % of control.

For `CCOC(=O)CC1(O)Oc2cc3c(cc2C(c2cc(OC)c(OC)c(OC)c2)C1C(=O)OCC)OCO3` (configuration not stated), the T/C (dose: 60.0 mg/kg/injection, schedule: Q01DX005 (ip), vehicle: Klucel (hydroxypropylcellulose) (HPC)) was 87 % of control, the T/C (dose: 120.0 mg/kg/injection, schedule: Q01DX005 (ip), vehicle: Klucel (hydroxypropylcellulose) (HPC)) was 89 % of control and the T/C (dose: 240.0 mg/kg/injection, schedule: Q01DX005 (ip), vehicle: Klucel (hydroxypropylcellulose) (HPC)) was 88 % of control.

With `CCOC(=O)c1c(O)c(Cc2ccccc2)c(=O)n2c1[nH]c1cc(C)c(C)cc12` the T/C (dose: 7.5 mg/kg/injection, schedule: Q01DX005 (ip), vehicle: saline with Tween-80) was 100 % of control and the T/C (dose: 15.0 mg/kg/injection, schedule: Q01DX005 (ip), vehicle: saline with Tween-80) was 100 % of control.

With `CCOC(=O)C(=Cc1c[nH]c2ccc(Br)cc12)C(=O)OCC` the T/C [17] was 104 % of control, the T/C (dose: 100.0 mg/kg/injection, schedule: Q04DX003 (ip), vehicle: saline with Tween-80) was 109 % of control and the T/C [18] was 87 % of control. The T/C (dose: 200.0 mg/kg/injection, schedule: Q04DX003 (ip), vehicle: saline with Tween-80) was 109 % of control, the T/C [19] was 100 % of control and the T/C (dose: 400.0 mg/kg/injection, schedule: Q04DX003 (ip), vehicle: saline with Tween-80) was 100 % of control.

`[N-]=[N+]=NC(=O)c1ccccn1` was tested, and the T/C [2] was 101 % of control, the T/C [3] was 113 % of control and the T/C [17] was 120 % of control.

For `O=C1CNC(=O)C12C(=O)CNC2=O`, the T/C [9] was 98 % of control, the T/C [10] was 96 % of control and the T/C (dose: 400.0 mg/kg/injection, schedule: Q04DX002 (ip), vehicle: saline with Tween-80) was 98 % of control.

`CCSc1nc2ccc(N=Cc3ccc(NS(=O)(=O)c4ccccc4)cc3O)cc2s1` was tested, and the T/C [4] was 116 % of control and the T/C [5] was 103 % of control.

In the case of `O=C(Nc1nccs1)C(F)(F)F`, the T/C [3] is reported as 104 % of control, the T/C [17] is reported as 104 % of control and the T/C [18] is reported as 99 % of control. For the same compound, the T/C [19] was 108 % of control.

For `Cc1cc(N=[N+]=[N-])c2cc(C3CCCCC3)ccc2n1`, the T/C [14] was 94 % of control, the T/C [15] was 93 % of control and the T/C [16] was 92 % of control.

With `N#CC(C(=O)CCc1nc2ccccc2[nH]1)c1c(Cl)cccc1Cl` (configuration not stated) the T/C [14] was 109 % of control, the T/C [15] was 101 % of control and the T/C [16] was 102 % of control.

`NC(N)=NS(=O)(=O)c1ccc([N+](=O)[O-])cc1` was tested, and the T/C [1] was 103 % of control, the T/C [2] was 107 % of control and the T/C [3] was 111 % of control.

For `O=[N+]([O-])c1ccc(N=Nc2ccc(O)cc2O)cc1`, the T/C [11] was 100 % of control, the T/C [12] was 114 % of control and the T/C [13] was 115 % of control.

With `CC(=O)OCC1OC(n2ncc(=S)[nH]c2=O)C2OC(C)(C)OC12` (configuration not stated) the T/C [3] was 92 % of control, the T/C [17] was 95 % of control and the T/C [18] was 97 % of control.

With `C[N+](C)(C)CCCSc1nc2ccccc2[nH]1` the T/C (dose: 0.13 mg/kg/injection, schedule: Q01DX009 (ip), vehicle: saline) was 95 % of control, the T/C (dose: 0.25 mg/kg/injection, schedule: Q01DX009 (ip), vehicle: saline) was 103 % of control and the T/C (dose: 0.5 mg/kg/injection, schedule: Q01DX009 (ip), vehicle: saline) was 103 % of control. The T/C (dose: 1.0 mg/kg/injection, schedule: Q01DX009 (ip), vehicle: saline) was 104 % of control.

For `COC(=O)C1=C(\N2CCCC2)CC(C)(C)CC(=O)/C=C\1C(=O)OC`, the T/C (dose: 50.0 mg/kg/injection, schedule: Q01DX005 (ip), vehicle: Klucel (hydroxypropylcellulose) (HPC)) was 92 % of control, the T/C (dose: 100.0 mg/kg/injection, schedule: Q01DX005 (ip), vehicle: Klucel (hydroxypropylcellulose) (HPC)) was 93 % of control and the T/C (dose: 200.0 mg/kg/injection, schedule: Q01DX005 (ip), vehicle: Klucel (hydroxypropylcellulose) (HPC)) was 104 % of control.

In the case of `CC(=O)NCC1(C)CCCC2(C)C3=CC(=O)C(C(C)C)=CC3(O)CCC12` (configuration not stated), the T/C (dose: 100.0 mg/kg/injection, schedule: Q01DX001 (ip), vehicle: Klucel (hydroxypropylcellulose) (HPC)) is reported as 98 % of control, the T/C (dose: 200.0 mg/kg/injection, schedule: Q01DX001 (ip), vehicle: Klucel (hydroxypropylcellulose) (HPC)) is reported as 90 % of control and the T/C (dose: 400.0 mg/kg/injection, schedule: Q01DX001 (ip), vehicle: Klucel (hydroxypropylcellulose) (HPC)) is reported as 94 % of control.

`CC(=S)NC(=O)NC(=O)c1ccc(C)cc1` was tested, and the T/C (dose: 100.0 mg/kg/injection, schedule: Q01DX001 (ip), vehicle: saline) was 102 % of control and 104 % of control, the T/C (dose: 200.0 mg/kg/injection, schedule: Q01DX001 (ip), vehicle: saline) was 112 % of control and 96 % of control and the T/C (dose: 400.0 mg/kg/injection, schedule: Q01DX001 (ip), vehicle: saline) was 112 % of control and 97 % of control.

With `CN(C)c1ccc(NN=O)nc1` the T/C (dose: 1.56 mg/kg/injection, schedule: Q01DX009 (ip), vehicle: water) was 122 % of control, the T/C (dose: 6.25 mg/kg/injection, schedule: Q01DX009 (ip), vehicle: water) was 150 % of control and the T/C (dose: 12.5 mg/kg/injection, schedule: Q01DX009 (ip), vehicle: water) was 110 % of control.
